Experiments:
Test in all cases: relative viability (nuclei count vs DMSO), 5 days (fraction); higher = more cells survive
[1] = compound: CC1(C)CCC(CN2CCN(c3ccc(C(=O)NS(=O)(=O)c4ccc(NCC5CCOCC5)c([N+](=O)[O-])c4)c(Oc4cnc5[nH]ccc5c4)c3)CC2)=C(c2ccc(Cl)cc2)C1 [Venetoclax] + CCNC(=O)c1noc(-c2cc(C(C)C)c(O)cc2O)c1-c1ccc(CN2CCOCC2)cc1 [Luminespib] (partner 0.01 µM)
In short: (§1)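 Nuclei were stained with Hoechst during a one-step fixation (final 0.05% Triton X-100, 1% formaldehyde, 1 ug/ml Hoechst) carried out 5 days after dosing, then counted on 4× images. The cells, lung cancer lines in 1536-well plates, had been dosed by pin tool the day after seeding with one drug alone or a fixed anchor-drug dose plus five library-drug doses (not always all listed) in √10 steps. Relative viability is the nuclei count in treated wells divided by that in vehicle wells, and each value is the median of duplicate plates.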

[2] = compound: CC1(C)CCC(CN2CCN(c3ccc(C(=O)NS(=O)(=O)c4ccc(NCC5CCOCC5)c([N+](=O)[O-])c4)c(Oc4cnc5[nH]ccc5c4)c3)CC2)=C(c2ccc(Cl)cc2)C1 [Venetoclax] + CS(=O)(=O)N1CCN(Cc2cc3nc(-c4cccc5[nH]ncc45)nc(N4CCOCC4)c3s2)CC1 [Pictilisib] (partner 1 µM)
In short: as §1

[3] = compound: Cn1cnc2c(F)c(Nc3ccc(Br)cc3Cl)c(C(=O)NOCCO)cc21 [Selumetinib] + NC(=O)Nc1cc(-c2cccc(F)c2)sc1C(=O)N[C@H]1CCCNC1 [AZD7762] (partner 0.2 µM)
In short: as §1

[4] = compound: Cn1cnc2c(F)c(Nc3ccc(Br)cc3Cl)c(C(=O)NOCCO)cc21 [Selumetinib] + COc1cccc2cc(-c3nc([C@H]4CC[C@H](C(=O)O)CC4)n4ncnc(N)c34)[nH]c12 [OSI-027] (partner 0.5 µM)
In short: as §1

Cell Line | relative viability ([1]; first compound 0.01 µM) | relative viability ([1]; first compound 0.03162 µM) | relative viability ([1]; first compound 0.1 µM) | relative viability ([1]; first compound 0.3162 µM) | relative viability ([1]; first compound 1 µM) | relative viability ([2]; first compound 0.01 µM) | relative viability ([2]; first compound 0.03162 µM) | relative viability ([2]; first compound 0.1 µM) | relative viability ([2]; first compound 0.3162 µM) | relative viability ([2]; first compound 1 µM) | relative viability ([3]; first compound 0.02 µM) | relative viability ([3]; first compound 0.06325 µM) | relative viability ([3]; first compound 0.2 µM) | relative viability ([3]; first compound 0.6325 µM) | relative viability ([4]; first compound 0.02 µM) | relative viability ([4]; first compound 0.06325 µM) | relative viability ([4]; first compound 0.2 µM) | relative viability ([4]; first compound 0.6325 µM)
NCI-H1993 | 0.881 | 0.843 | 0.917 | 0.896 | 0.777 | 1.03 | 0.802 | 0.8 | 0.685 | 0.78 | 0.842 | 0.733 | 0.634 | 0.666 | 0.553 | 0.585 | 0.585 | 0.632
NCI-H2085 | 0.339 | 0.427 | 0.437 | 0.37 | 0.438 | 0.458 | 0.48 | 0.417 | 0.507 | 0.502 | 0.914 | 0.906 | 0.864 | 0.722 | 0.71 | 0.499 | 0.35 | 0.428
NCI-H2087 | 0.154 | 0.138 | 0.175 | 0.18 | 0.135 | 1.08 | 1.08 | 0.832 | 0.921 | 0.789 | 1.1 | 0.993 | 1.16 | 0.525 | 0.466 | 0.434 | 0.256 | 0.177
NCI-H2126 | 0.866 | 0.95 | 0.991 | 0.961 | 0.87 | 0.482 | 0.538 | 0.487 | 0.528 | 0.488 | 1.03 | 0.981 | 0.987 | 0.903 | 0.676 | 0.597 | 0.577 | 0.606
